Each molecule was assayed on test plant species (assay: Post-emergent herbicidal activity test (greenhouse, foliar spray, visual growth reduction)). Settings: post-emergence, 336 h, ALOMY: blackgrass (Alopecurus myosuroides), 140 g ai/ha, 14 days after application, read-out: Visual Growth Reduction (%) 14 Days After Application, ALOMY.
Format: in vivo
Procedure, shortened: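 Greenhouse plants at first–second true leaf stage sprayed overhead at 187 L/ha with compound in acetone/water/isopropanol/DMSO/crop oil/X-77 carrier; controls received solvent blank. Injury rated visually after 14 d on a 0–100% scale versus untreated and control plants, converted to growth reduction.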
With `COC(=O)c1nc(-c2ccc(Cl)cc2)cc(Cl)c1Cl` [F80, Methyl 3,4-dichloro-6-(4-chlorophenyl) picolinate] the pest or weed control at 140 g/ha was 0 to 29%.
With `COC(=O)c1nc(-c2ccc(C(F)(F)F)cc2)c(Cl)cc1Cl` [F106, Methyl 3,5-dichloro-6-(4-(trifluoromethyl)phenyl)picolinate] the pest or weed control at 140 g/ha was 0 to 29%.

Same assay, conditions: post-emergence, 336 h, AMARE: redroot pigweed (Amaranthus retroflexus), 140 g ai/ha, 14 days after application, read-out: Visual Growth Reduction (%) 14 Days After Application, AMARE
In the case of `COC(=O)c1nc(-c2ccc(Cl)cc2)cc(Cl)c1Cl` [F80, Methyl 3,4-dichloro-6-(4-chlorophenyl) picolinate], the pest or weed control at 140 g/ha is reported as 60 to 74%.
Work on `COC(=O)c1nc(-c2ccc(C(F)(F)F)cc2)c(Cl)cc1Cl` [F106, Methyl 3,5-dichloro-6-(4-(trifluoromethyl)phenyl)picolinate] yielded a pest or weed control at 140 g/ha of 45 to 59%.

Same assay, conditions: post-emergence, 336 h, AVEFA: wild oat (Avena fatua), 140 g ai/ha, 14 days after application, read-out: Visual Growth Reduction (%) 14 Days After Application, AVEFA
For `COC(=O)c1nc(-c2ccc(Cl)cc2)cc(Cl)c1Cl` [F80, Methyl 3,4-dichloro-6-(4-chlorophenyl) picolinate], the pest or weed control at 140 g/ha was 0 to 29%.
`COC(=O)c1nc(-c2ccc(C(F)(F)F)cc2)c(Cl)cc1Cl` [F106, Methyl 3,5-dichloro-6-(4-(trifluoromethyl)phenyl)picolinate] was tested, and the pest or weed control at 140 g/ha was 0 to 29%.

Same assay, conditions: post-emergence, 336 h, CHEAL: lambsquarters (Chenopodium album), 140 g ai/ha, 14 days after application, read-out: Visual Growth Reduction (%) 14 Days After Application, CHEAL
`COC(=O)c1nc(-c2ccc(Cl)cc2)cc(Cl)c1Cl` [F80, Methyl 3,4-dichloro-6-(4-chlorophenyl) picolinate] showed a pest or weed control at 140 g/ha of 30 to 44%.
With `COC(=O)c1nc(-c2ccc(C(F)(F)F)cc2)c(Cl)cc1Cl` [F106, Methyl 3,5-dichloro-6-(4-(trifluoromethyl)phenyl)picolinate] the pest or weed control at 140 g/ha was 30 to 44%.

Same assay, conditions: post-emergence, 336 h, CIRAR: canada thistle (Cirsium arvense), 140 g ai/ha, 14 days after application, read-out: Visual Growth Reduction (%) 14 Days After Application, CIRAR
With `COC(=O)c1nc(-c2ccc(Cl)cc2)cc(Cl)c1Cl` [F80, Methyl 3,4-dichloro-6-(4-chlorophenyl) picolinate] the pest or weed control at 140 g/ha was 0 to 29%.
`COC(=O)c1nc(-c2ccc(C(F)(F)F)cc2)c(Cl)cc1Cl` [F106, Methyl 3,5-dichloro-6-(4-(trifluoromethyl)phenyl)picolinate] was tested, and the pest or weed control at 140 g/ha was 0 to 29%.

Same assay, conditions: post-emergence, 336 h, CYPES: yellow nutsedge (Cyperus esculentus), 140 g ai/ha, 14 days after application, read-out: Visual Growth Reduction (%) 14 Days After Application, CYPES
Work on `COC(=O)c1nc(-c2ccc(Cl)cc2)cc(Cl)c1Cl` [F80, Methyl 3,4-dichloro-6-(4-chlorophenyl) picolinate] yielded a pest or weed control at 140 g/ha of 0 to 29%.
`COC(=O)c1nc(-c2ccc(C(F)(F)F)cc2)c(Cl)cc1Cl` [F106, Methyl 3,5-dichloro-6-(4-(trifluoromethyl)phenyl)picolinate] was tested, and the pest or weed control at 140 g/ha was 0 to 29%.

Same assay, conditions: post-emergence, 336 h, DIGSA: crabgrass (Digitaria sanguinalis), 140 g ai/ha, 14 days after application, read-out: Visual Growth Reduction (%) 14 Days After Application, DIGSA
`COC(=O)c1nc(-c2ccc(Cl)cc2)cc(Cl)c1Cl` [F80, Methyl 3,4-dichloro-6-(4-chlorophenyl) picolinate] gave a pest or weed control at 140 g/ha of 0 to 29%.
Work on `COC(=O)c1nc(-c2ccc(C(F)(F)F)cc2)c(Cl)cc1Cl` [F106, Methyl 3,5-dichloro-6-(4-(trifluoromethyl)phenyl)picolinate] yielded a pest or weed control at 140 g/ha of 45 to 59%.

Same assay, conditions: post-emergence, 336 h, ECHCG: barnyardgrass (Echinochloa crus-galli), 140 g ai/ha, 14 days after application, read-out: Visual Growth Reduction (%) 14 Days After Application, ECHCG
`COC(=O)c1nc(-c2ccc(Cl)cc2)cc(Cl)c1Cl` [F80, Methyl 3,4-dichloro-6-(4-chlorophenyl) picolinate] was tested, and the pest or weed control at 140 g/ha was 0 to 29%.
`COC(=O)c1nc(-c2ccc(C(F)(F)F)cc2)c(Cl)cc1Cl` [F106, Methyl 3,5-dichloro-6-(4-(trifluoromethyl)phenyl)picolinate] gave a pest or weed control at 140 g/ha of 0 to 29%.

Same assay, conditions: post-emergence, 336 h, IPOHE: ivy-leaf morning glory (Ipomoea hederacea), 140 g ai/ha, 14 days after application, read-out: Visual Growth Reduction (%) 14 Days After Application, IPOHE
`COC(=O)c1nc(-c2ccc(Cl)cc2)cc(Cl)c1Cl` [F80, Methyl 3,4-dichloro-6-(4-chlorophenyl) picolinate] was tested, and the pest or weed control at 140 g/ha was 45 to 59%.
`COC(=O)c1nc(-c2ccc(C(F)(F)F)cc2)c(Cl)cc1Cl` [F106, Methyl 3,5-dichloro-6-(4-(trifluoromethyl)phenyl)picolinate] was tested, and the pest or weed control at 140 g/ha was 45 to 59%.

Same assay, conditions: post-emergence, 336 h, KCHSC: kochia (Bassia scoparia), 140 g ai/ha, 14 days after application, read-out: Visual Growth Reduction (%) 14 Days After Application, KCHSC
Work on `COC(=O)c1nc(-c2ccc(C(F)(F)F)cc2)c(Cl)cc1Cl` [F106, Methyl 3,5-dichloro-6-(4-(trifluoromethyl)phenyl)picolinate] yielded a pest or weed control at 140 g/ha of 0 to 29%.

Same assay, conditions: post-emergence, 336 h, ORYSA: rice (Oryza sativa), 140 g ai/ha, 14 days after application, read-out: Visual Growth Reduction (%) 14 Days After Application, ORYSA
With `COC(=O)c1nc(-c2ccc(Cl)cc2)cc(Cl)c1Cl` [F80, Methyl 3,4-dichloro-6-(4-chlorophenyl) picolinate] the pest or weed control at 140 g/ha was 0 to 29%.
`COC(=O)c1nc(-c2ccc(C(F)(F)F)cc2)c(Cl)cc1Cl` [F106, Methyl 3,5-dichloro-6-(4-(trifluoromethyl)phenyl)picolinate] showed a pest or weed control at 140 g/ha of 0 to 29%.

Same assay, conditions: post-emergence, 336 h, SETFA: giant foxtail (Setaria faberi), 140 g ai/ha, 14 days after application, read-out: Visual Growth Reduction (%) 14 Days After Application, SETFA
For `COC(=O)c1nc(-c2ccc(Cl)cc2)cc(Cl)c1Cl` [F80, Methyl 3,4-dichloro-6-(4-chlorophenyl) picolinate], the pest or weed control at 140 g/ha was 0 to 29%.
Work on `COC(=O)c1nc(-c2ccc(C(F)(F)F)cc2)c(Cl)cc1Cl` [F106, Methyl 3,5-dichloro-6-(4-(trifluoromethyl)phenyl)picolinate] yielded a pest or weed control at 140 g/ha of 0 to 29%.

Same assay, conditions: post-emergence, 336 h, SORVU: grain sorghum (Sorghum vulgare), 140 g ai/ha, 14 days after application, read-out: Visual Growth Reduction (%) 14 Days After Application, SORVU
`COC(=O)c1nc(-c2ccc(Cl)cc2)cc(Cl)c1Cl` [F80, Methyl 3,4-dichloro-6-(4-chlorophenyl) picolinate] gave a pest or weed control at 140 g/ha of 0 to 29%.
`COC(=O)c1nc(-c2ccc(C(F)(F)F)cc2)c(Cl)cc1Cl` [F106, Methyl 3,5-dichloro-6-(4-(trifluoromethyl)phenyl)picolinate] was tested, and the pest or weed control at 140 g/ha was 30 to 44%.

Same assay, conditions: post-emergence, 336 h, STEME: common chickweed (Stellaria media), 140 g ai/ha, 14 days after application, read-out: Visual Growth Reduction (%) 14 Days After Application, STEME
`COC(=O)c1nc(-c2ccc(Cl)cc2)cc(Cl)c1Cl` [F80, Methyl 3,4-dichloro-6-(4-chlorophenyl) picolinate] showed a pest or weed control at 140 g/ha of 0 to 29%.
Molecule `COC(=O)c1nc(-c2ccc(C(F)(F)F)cc2)c(Cl)cc1Cl` [F106, Methyl 3,5-dichloro-6-(4-(trifluoromethyl)phenyl)picolinate] has a pest or weed control at 140 g/ha of 0 to 29%.

Same assay, conditions: post-emergence, 336 h, TRZAS: wheat, spring (Triticum aestivum), 140 g ai/ha, 14 days after application, read-out: Visual Growth Reduction (%) 14 Days After Application, TRZAS
Work on `COC(=O)c1nc(-c2ccc(Cl)cc2)cc(Cl)c1Cl` [F80, Methyl 3,4-dichloro-6-(4-chlorophenyl) picolinate] yielded a pest or weed control at 140 g/ha of 0 to 29%.
`COC(=O)c1nc(-c2ccc(C(F)(F)F)cc2)c(Cl)cc1Cl` [F106, Methyl 3,5-dichloro-6-(4-(trifluoromethyl)phenyl)picolinate] showed a pest or weed control at 140 g/ha of 0 to 29%.

Reference: patent publication US20230017045A1, “PYRIDINE AND PYRIMIDINE CARBOXYLATE HERBICIDES AND METHODS OF USE THEREOF” (Dow AgroSciences LLC, priority 2017, published 2023)
